Data taken from patent US10703748B2, “Diazanaphthalen-3-yl carboxamides and preparation and use thereof” (Samumed, LLC, priority 2017, dated 2020).

Experiments:
[1] = target: GSK3β kinase (Homo sapiens, UniProt P49841); experiment: GSK3β kinase activity (Ser/Thr 09 peptide Z-lyte FRET assay); assay type: biochemical; details: recombinant kinase, 46 μM ATP, one hour at room temperature; read-out: EC50
Experimental: Each compound is dissolved in DMSO as a 10 mM stock and used to prepare compound source plates. Serial dilution (1:3, 11-point dose-response curves from 10 μM to 0.0003 μM) and compound transfer was performed using the ECHO 550 (Labcyte, Sunnyvale, Calif.) into 1536-well black-walled round bottom plates (Corning).
This is a non-radioactive assay using fluorescence resonance energy transfer (FRET) between coumarin and fluorescein to detect kinase activity which is represented as ratio of coumarin emission/fluorescein emission.
The mixture is allowed to incubate with the representative compounds for one hour at room temperature. All reactions were performed in duplicate. Unphosphorylated (“0% Control”) and phosphorylated (“100% control”) forms of Ser/Thr 18 serve as control reactions.
After incubation, diluted Development Buffer is added to the reaction and allowed to further incubate for one hour at room temperature.
Dose-response curves are generated and inhibitory concentration (IC50) values are calculated using non-linear regression curve fit in the Dotmatics' Studies Software (Bishops Stortford, UK).

[2] = target: DYRK1A kinase (Homo sapiens, UniProt Q13627); experiment: DYRK1A kinase activity (Ser/Thr 18 peptide Z-lyte FRET assay); assay type: biochemical; details: recombinant DYRK1A, 30 μM ATP, one hour at room temperature;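 further: kinase activity read as coumarin/fluorescein emission ratio after development step, with unphosphorylated and phosphorylated peptide forms setting 0% and 100% controls, values from dose-response curves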
[3] = test system: Tau phosphorylation at Ser396 (pSer396); experiment: Tau phosphorylation at Ser396 (pSer396) in SH-SY5Y cells, ELISA / western blot; assay type: cell-based, human; details: Homo sapiens; SH-SY5Y cells, overnight (16-18 h); read-out: pSer396 Tau EC50;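 further: decrease in pSer396 Tau measured in lysates of treated cells by colorimetric ELISA or chemiluminescent western blot, same pSer396 antibody for both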
Experimental: Two days before treatment, cells were seeded onto 96 well plates at 5×10^4 cells/well.
The above synthesized compounds were screened using the cell assay procedure to assess decrease Tau phosphorylation at Ser396 (pSer396) described below.
Cells were lysed with RIPA buffer complemented with phosphatase and protease inhibitors then lysates were spun down at 12,000 g for 10 min to remove any cellular debris.

[4] = test system: SW480 colon carcinoma cells; experiment: Cell viability assay (CellTiter-Glo); details: Homo sapiens; for EC50: SW480, 96 h; for inhibition at 10 µM: SW480, read-out: percent inhibition at 10 μM
[5] = test system: α-smooth muscle actin (aSMA) positive LL29 cells; experiment: Inhibition of the fibrotic process: αSMA staining in TGF-β1 treated LL29 fibroblasts from IPF patients; details: Homo sapiens, Fibroblast; for EC50: 96 h; for inhibition at 10 µM: read-out: percentage in parentheses after EC50 >10
[6] = test system: Wnt-responsive Sp5-Luc reporter in SW480 colon carcinoma cells; experiment: Screening assay for Wnt activity (Sp5-Luc reporter gene assay); details: Homo sapiens; for EC50: SW480; for inhibition at 10 µM: SW480, read-out: percent inhibition at 10 μM
[7] = test system: IL-6; experiment: IL-6 inhibition in LPS-stimulated human peripheral blood mononuclear cells (HTRF); details: Homo sapiens, PBMC; for EC50: 22 h; for inhibition at 10 µM: read-out: percentage in parentheses after EC50 >10
[8] = test system: secreted cytokines TNFα, IL-6 and KC-GRO; experiment: Secreted cytokines in Lipopolysaccharide-stimulated BV-2 cells (Table 9 does not say which cytokine); assay type: cell-based, mouse; details: Mus musculus, BV-2, 5 h; read-out: EC50

Sequence of GSK3β kinase (P49841 whole entry): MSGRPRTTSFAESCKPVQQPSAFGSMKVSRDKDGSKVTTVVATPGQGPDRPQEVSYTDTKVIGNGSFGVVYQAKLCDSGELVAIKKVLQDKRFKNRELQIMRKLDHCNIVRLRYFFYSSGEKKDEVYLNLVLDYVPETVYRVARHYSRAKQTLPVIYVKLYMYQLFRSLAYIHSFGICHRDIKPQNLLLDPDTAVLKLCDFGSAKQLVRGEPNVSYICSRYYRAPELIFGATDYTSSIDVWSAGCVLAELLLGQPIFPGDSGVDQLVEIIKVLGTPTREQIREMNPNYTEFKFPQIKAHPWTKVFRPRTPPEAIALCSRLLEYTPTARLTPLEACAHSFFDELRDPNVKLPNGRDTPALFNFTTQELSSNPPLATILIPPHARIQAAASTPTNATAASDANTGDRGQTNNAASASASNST

Row | Compound | EC50 [1] | EC50 [2] | EC50 [3] | EC50 [4] | inhibition at 10 µM [4] | EC50 [5] | inhibition at 10 µM [5] | EC50 [6] | EC50 [7] | inhibition at 10 µM [7] | EC50 [8] | inhibition at 10 µM [6]
1 | Cn1cc(-c2cc3cc(NC(=O)C4CCN(Cc5ncco5)CC4)ncc3cn2)cn1 [Compound 3723, N-(6-(1-Methyl-1H-pyrazol-4-yl)-2,7-naphthyridin-3-yl)-1-(oxazol-2-ylmethyl)piperidine-4-carboxamide] | 0.01 µM | 0.002 µM | 0.252 µM | > 10 µM | 43.7% | > 10 µM | 9.1% | 0.842 µM | > 10 µM | 2.8% | 0.094 µM | 
2 | Cn1cc(-c2cc3cc(NC(=O)[C@H]4CCCN4)ncc3cn2)cn1 [Compound 3689, (R)—N-(6-(1-Methyl-1H-pyrazol-4-yl)-2,7-naphthyridin-3-yl)pyrrolidine-2-carboxamide] | 0.008 µM | 0.071 µM | 0.156 µM | > 10 µM | 28.8% | 0.893 µM |  | 0.37 µM | > 10 µM | 7.6% | > 10 µM | 
3 | CC(C(=O)Nc1cc2nc(-c3cnn(C)c3)ccc2cn1)N1CCCCC1 (centres unmarked) [Compound 112, N-(2-(1-Methyl-1H-pyrazol-4-yl)-1,6-naphthyridin-7-yl)-2-(piperidin-1-yl)propanamide] | 0.062 µM | 0.088 µM | 1.1 µM | 7.79 µM |  | > 10 µM | 13.8% | 3.65 µM | 9.4 µM |  | 5.4 µM | 
4 | Cc1ncc(-c2ccc3cnc(NC(=O)N4CCOCC4)cc3n2)s1 [Compound 634, N-(2-(2-Methylthiazol-5-yl)-1,6-naphthyridin-7-yl)morpholine-4-carboxamide] | 1.15 µM | 0.029 µM | 7.9 µM | > 10 µM | 41.2% | 2.13 µM |  | 8.61 µM | > 10 µM | 13% | 0.542 µM | 
5 | Cn1cc(-c2ccc3cnc(NC(=O)C4CCN(CC5(C(F)(F)F)CC5)CC4)nc3c2)nn1 [Compound 1253, N-(7-(1-Methyl-1H-1,2,3-triazol-4-yl)quinazolin-2-yl)-1-((1-(trifluoromethyl)cyclopropyl)methyl)piperidine-4-carboxamide] | 0.015 µM | 0.013 µM | 0.188 µM | > 10 µM | 17.1% | > 10 µM | 47.2% | 1.18 µM | > 10 µM | 4.4% | > 10 µM | 
6 | CO[C@H]1CC[C@@H](C(=O)Nc2ncc3ccc(-c4nnc(C)s4)cc3n2)CC1 [Compound 1612, cis-4-Methoxy-N-(7-(5-methyl-1,3,4-thiadiazol-2-yl)quinazolin-2-yl)cyclohexane-1-carboxamide] | 0.049 µM | 0.021 µM | 1.1 µM | > 10 µM | 23.8% | > 10 µM | 42% | > 10 µM | > 10 µM | 6.3% | 2.2 µM | 37.9%
7 | Cn1cncc1-c1ccc2cnc(NC(=O)c3ccc4c(c3)CNC4)cc2n1 [Compound 477, N-(2-(1-Methyl-1H-imidazol-5-yl)-1,6-naphthyridin-7-yl)isoindoline-5-carboxamide] | 0.084 µM | 0.001 µM | 10 µM | 1.69 µM |  | 0.632 µM |  | 0.962 µM | 9.83 µM |  | 4.8 µM | 
8 | O=C(Nc1cc2cc(-c3cncc(NC4CCNCC4)n3)ncc2cn1)C1CCOCC1 [Compound 4504, N-(6-(6-(Piperidin-4-ylamino)pyrazin-2-yl)-2,7-naphthyridin-3-yl) tetrahydro-2H-pyran-4-carboxamide] | 0.077 µM | 0.004 µM | 10 µM | > 10 µM | 47.9% | 0.384 µM |  | 3.64 µM | > 10 µM | 7.3% | 0.524 µM | 
9 | Cn1cc(-c2ccc3cnc(NC(=O)[C@H]4CC[C@H](N5CCOCC5)CC4)cc3n2)cn1 [Compound 5, trans-N-(2-(1-methyl-1H-pyrazol-4-yl)-1,6-naphthyridin-7-yl)-4-morpholinocyclohexane-1-carboxamide] | 0.138 µM | 0.007 µM | 2 µM | > 10 µM | 39.9% | > 10 µM | 9% | > 10 µM | 3.3 µM |  | 0.4 µM | 47.9%
10 | O=C(Nc1cc2nc(-c3cccnc3)ccc2cn1)C1CC1 [Compound 764, N-(2-(Pyridin-3-yl)-1,6-naphthyridin-7-yl)cyclopropanecarboxamide] | 0.243 µM | 0.008 µM | 0.807 µM | > 10 µM | 24.7% | > 10 µM | 5.8% | > 10 µM | > 10 µM | 4.3% | 5.1 µM | 27.5%
11 | O=C(Nc1ncc2ccc(-c3cncs3)cc2n1)C1CCN(C(=O)CN2CCCC2)CC1 [Compound 1524, 1-(2-(Pyrrolidin-1-yl)acetyl)-N-(7-(thiazol-5-yl)quinazolin-2-yl)piperidine-4-carboxamide] | 0.407 µM | 0.007 µM | > 10 µM | > 10 µM | 18.1% | 4.78 µM |  | > 10 µM | > 10 µM | 50% | 3.6 µM | 13.4%
12 | Cn1cc(-c2ccc3cnc(NC(=O)C4CCN(Cc5ncco5)CC4)cc3n2)cn1 [Compound 95, N-(2-(1-Methyl-1H-pyrazol-4-yl)-1,6-naphthyridin-7-yl)-1-(oxazol-2-ylmethyl)piperidine-4-carboxamide] | 0.084 µM | 0.006 µM | 1.7 µM | > 10 µM | 38.6% | 0.444 µM |  | 1.54 µM | 9.09 µM |  | 0.066 µM | 
13 | Cn1cc(-c2ccc3cnc(NC(=O)C4CCN(Cc5ncco5)CC4)nc3c2)cn1 [Compound 1003, N-(7-(1-Methyl-1H-pyrazol-4-yl)quinazolin-2-yl)-1-(oxazol-2-ylmethyl) piperidine-4-carboxamide] | 0.262 µM | 0.025 µM | 4.5 µM | > 10 µM | 18.5% | > 10 µM | 4.8% | > 10 µM | > 10 µM | 6.6% | 1.49 µM | 19.3%
14 | O=C(Nc1cc2cc(-c3cnco3)cnc2cn1)[C@H]1CC[C@H](CO)CC1 [Compound 4610] | > 10 µM | 0.029 µM | > 10 µM | > 10 µM | 24.6% | 4.19 µM |  | > 10 µM | > 10 µM | 10.3% | 0.261 µM | 9.1%
15 | CN(CC(=O)Nc1cc2nc(-c3cnn(C)c3)ccc2cn1)C1CCC1 [Compound 56, 2-(Cyclobutyl(methyl)amino)-N-(2-(1-methyl-1H-pyrazol-4-yl)-1,6-naphthyridin-7-yl)acetamide] | 0.059 µM | 0.021 µM | 1.5 µM | > 10 µM | 35% | 5.18 µM |  | 3.39 µM | > 10 µM | 6.3% | 1.14 µM | 
16 | CN1CCC(Oc2ccc(C(=O)Nc3cc4cc(-c5cnn(C)c5)ncc4cn3)cc2)CC1 [Compound 3772, N-(6-(1-Methyl-1H-pyrazol-4-yl)-2,7-naphthyridin-3-yl)-4-((1-methylpiperidin-4-yl)oxy)benzamide] | 0.39 µM | 0.008 µM | 7.28 µM | 8.16 µM |  | 1.14 µM |  | 0.221 µM | > 10 µM | 10.6% | ≥ 10 µM | 
17 | Cn1cncc1-c1cc2cc(NC(=O)c3ccc4c(c3)CNC4)ncc2cn1 [Compound 4104, N-(6-(1-Methyl-1H-imidazol-5-yl)-2,7-naphthyridin-3-yl)isoindoline-5-carboxamide] | 0.145 µM | 0.003 µM | 10 µM | 7.75 µM |  | 3.08 µM |  | > 10 µM | > 10 µM | 5.7% | 1.2 µM | 41.3%
18 | COCCN[C@H]1CC[C@H](C(=O)Nc2cc3nc(-c4cnn(C)c4)ccc3cn2)CC1 [Compound 4536, trans-4-((2-Methoxyethyl)amino)-N-(2-(1-methyl-1H-pyrazol-4-yl)-1,6-naphthyridin-7-yl) cyclohexane-1-carboxamide] | 0.319 µM | 0.014 µM | > 10 µM | > 10 µM | 45.9% | 1.14 µM |  | 0.832 µM | 3.02 µM |  | 0.089 µM | 
